# Measurements reported in patent publication US6737383B1, “Herbicidal oxadiazolidines” (priority 1999, dated 2004).
# Legend:
# wild oat = assay: Test E wild oat; type: in vivo, Avena fatua; settings: Preemergence
# Italian ryegrass = assay: Test E Italian ryegrass; type: in vivo, Lolium multiflorum; settings: Preemergence
# rice = assay: Test B flood test rice; type: in vivo, Oryza sativa; settings: for Plant response rating, Rice (0 to 10 scale, 0 is no effect, 10 is complete control): visual evaluation after twelve to sixteen days
# In short: (§1)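 Each value is a visual injury score relative to controls, with 10 meaning complete control and 0 no effect. Evaluation took place twelve to sixteen days after the 2-leaf-stage plants were treated and kept in the greenhouse.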
# blackgrass = assay: Test E blackgrass; type: in vivo, Alopecurus myosuroides; settings: Preemergence
# winter wheat [1] = assay: Test E winter wheat; type: in vivo, Triticum aestivum; settings: Preemergence
# winter barley = assay: Test E winter barley; type: in vivo, Hordeum vulgare; settings: Preemergence
# duck salad = assay: Test B flood test duck salad; type: in vivo, Heteranthera limosa; settings: for Plant response rating, Ducksalad (0 to 10 scale, 0 is no effect, 10 is complete control): visual evaluation after twelve to sixteen days
# In short: as §1
# morningglory = assay: Test B pre/postemergence morningglory; type: in vivo, Ipomoea hederacea
# In short: (§2)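 Response is a visual 0-to-10 score relative to untreated plants, where 0 means no effect and 10 means complete control, taken twelve to sixteen days after application. Treatments went onto soil at planting and onto foliage of 1- to 4-leaf plants, using a surfactant-containing non-phytotoxic solvent.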
# green foxtail = assay: Test E green foxtail; type: in vivo, Setaria viridis; settings: Preemergence
# winter wheat [2] = assay: Test E winter wheat; type: in vivo, Triticum aestivum; settings: Postemergence
# In short: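 For postemergence, application to 1- to 4-leaf plants growing in a 60:40 sandy loam–potting mix substrate. Formulation: non-phytotoxic solvent mixture plus surfactant. Untreated controls served as the reference for the visual rating after ~21–28 days.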
# giant foxtail = assay: Test B pre/postemergence giant foxtail; type: in vivo, Setaria faberii
# In short: as §2
# [3] = Rate 500 g/ha, 0 to 100 scale (0 no effect, 100 complete control)
# [4] = Rate 1000 g/ha, 0 to 100 scale, 0 no effect, 100 complete control
# [5] = Rate 62 g/ha, flood test species, Pre-emergence
# [6] = Rate 125 g/ha, Pre-emergence, flood test species, scale 0 to 10 where 0 is no effect and 10 is complete control
# [7] = Rate 250 g/ha, Pre-emergence, flood-test species, scale 0 to 10, 0 is no effect, 10 is complete control
# [8] = Rate 500 g/ha, Pre-emergence, flood test species, scale 0 to 10 (0 no effect, 10 complete control)
# [9] = Rate 250 g/ha, 0 to 100 scale, 0 no effect, 100 complete control
# [10] = Postemergence, Rate 125 g/ha, scale 0 to 10, 0 is no effect, 10 is complete control
# [11] = Preemergence, Rate 62 g/ha, scale 0 to 10 (0 no effect, 10 complete control)
# [12] = Preemergence, Rate 250 g/ha, scale of 0 to 10 where 0 is no effect and 10 is complete control
# [13] = Preemergence, Rate 500 g/ha, scale of 0 to 10 where 0 is no effect and 10 is complete control
# [14] = Rate 62 g/ha, Postemergence, scale of 0 to 10 where 0 is no effect and 10 is complete control
# [15] = Rate 500 g/ha, Postemergence, scale 0 to 10, 0 no effect, 10 complete control
# [16] = Rate 250 g/ha, 0 to 100 scale, 0 is no effect, 100 is complete control
# [17] = Rate 500 g/ha, 0 to 100 scale, 0 is no effect, 100 is complete control
# [18] = Rate 62 g/ha, 0 to 100 scale, 0 no effect, 100 complete control
# [19] = Rate 125 g/ha, 0 to 100 scale (0 no effect, 100 complete control)
# [20] = Postemergence (flood test species), Rate 125 g/ha, scale of 0 to 10 where 0 is no effect and 10 is complete control
# [21] = Rate 62 g/ha, Postemergence section, flood test species, scale of 0 to 10 where 0 is no effect and 10 is complete control
# [22] = Rate 250 g/ha, Postemergence (flood test), scale 0 to 10, 0 is no effect, 10 is complete control
# [23] = Rate 500 g/ha, listed under Postemergence (flood test species), scale 0 to 10
# [24] = Postemergence, Rate 125 g/ha, scale of 0 to 10 where 0 is no effect and 10 is complete control
# [25] = Preemergence, Rate 125 g/ha, 0 is no effect, 10 is complete control
# [26] = Preemergence, Rate 250 g/ha, scale 0 to 10, 0 is no effect, 10 is complete control
# [27] = Preemergence, Rate 500 g/ha, scale 0 to 10 (0 no effect, 10 complete control)
# [28] = Rate 250 g/ha, Postemergence, scale 0 to 10, 0 is no effect, 10 is complete control
# [29] = Rate 500 g/ha, Postemergence, scale 0 to 10
compound,measurement,setting,value
CC(C)N(C(=O)n1oc(=O)n(C2CCCCCC2)c1=O)c1ccccc1 [Compound 341],"Plant response rating, Wild oat","wild oat; Rate 250 g/ha, 0 to 100 scale",60
same,"Plant response rating, Wild oat",wild oat; [3],70
same,"Plant response rating, Wild oat",wild oat; [4],80
same,"Plant response rating, I. Ryegrass","Italian ryegrass; Rate 250 g/ha, 0 to 100 scale",50
same,"Plant response rating, I. Ryegrass",Italian ryegrass; [3],55
same,"Plant response rating, I. Ryegrass",Italian ryegrass; [4],55
same,"Plant response rating, Rice (0 to 10 scale, 0 is no effect, 10 is complete control)",rice; [5],0
same,Rice plant response rating,rice; [6],0
same,Rice plant response rating,rice; [7],0
same,Rice plant response rating,rice; [8],2
same,"Plant response rating, Blackgrass","blackgrass; Rate 250 g/ha, 0 to 100 scale",40
same,"Plant response rating, Blackgrass",blackgrass; [3],60
same,"Plant response rating, Blackgrass",blackgrass; [4],90
same,"Plant response rating, Wheat (winter)","winter wheat [1]; Rate 250 g/ha, 0 to 100 scale",40
same,"Plant response rating, Wheat (winter)",winter wheat [1]; [3],50
same,"Plant response rating, Wheat (winter)",winter wheat [1]; [4],85
same,"Plant response rating, Barley (winter)",winter barley; [9],70
same,"Plant response rating, Barley (winter)",winter barley; [3],60
same,"Plant response rating, Barley (winter)",winter barley; [4],80
same,"Plant response rating, Ducksalad (0 to 10 scale, 0 is no effect, 10 is complete control)",duck salad; [5],0
same,Ducksalad plant response rating,duck salad; [6],0
same,Ducksalad plant response rating,duck salad; [7],0
same,Ducksalad plant response rating,duck salad; [8],3
same,"Plant response rating, Morningglory",morningglory; [10],7
same,"Plant response rating, Morningglory",morningglory; [11],0
same,Morningglory plant response rating (0 to 10 scale),"morningglory; Preemergence, Rate 125 g/ha",0
same,Morningglory plant response rating,morningglory; [12],0
same,Morningglory plant response rating,morningglory; [13],0
same,Morningglory plant response rating,morningglory; [14],7
same,"Plant response rating, Morningglory",morningglory; [15],10
same,"Plant response rating, Green foxtail","green foxtail; Rate 250 g/ha, 0 to 100 scale",25
same,"Plant response rating, Green foxtail",green foxtail; [3],55
same,"Plant response rating, Green foxtail",green foxtail; [4],85
same,"Plant response rating, Wheat (winter)",winter wheat [2]; [16],70
same,"Plant response rating, Wheat (winter)","winter wheat [2]; Rate 1000 g/ha, 0 to 100 scale where 0 is no effect and 100 is complete control",65
same,"Plant response rating, Wheat (winter)",winter wheat [2]; [17],65
same,"Plant response rating, Giant foxtail",giant foxtail; [10],0
same,"Plant response rating, Giant foxtail",giant foxtail; [11],9
same,Giant foxtail plant response rating (0 to 10 scale),"giant foxtail; Preemergence, Rate 125 g/ha",9
same,Giant foxtail plant response rating,giant foxtail; [12],10
same,Giant foxtail plant response rating,giant foxtail; [13],10
same,Giant foxtail plant response rating,giant foxtail; [14],0
same,"Plant response rating, Giant foxtail",giant foxtail; [15],2
CC(C)N(C(=O)n1oc(=O)n(CCCl)c1=O)c1ccc(F)cc1 [Compound 148],"Plant response rating, Wild oat",wild oat; [18],10
same,"Plant response rating, Wild oat",wild oat; [19],15
same,Wild oat plant response rating (0 to 100 scale),wild oat; Rate 250 g/ha,40
same,"Plant response rating, I. Ryegrass",Italian ryegrass; [18],20
same,"Plant response rating, I. Ryegrass",Italian ryegrass; [19],20
same,I. Ryegrass plant response rating (0 to 100 scale),Italian ryegrass; Rate 250 g/ha,30
same,Rice plant response rating,rice; [20],0
same,Rice plant response rating,rice; [21],0
same,"Plant response rating, Rice",rice; [22],0
same,Rice plant response rating,rice; [23],0
same,"Plant response rating, Blackgrass",blackgrass; [18],20
same,"Plant response rating, Blackgrass",blackgrass; [19],50
same,Blackgrass plant response rating (0 to 100 scale),blackgrass; Rate 250 g/ha,50
same,"Plant response rating, Wheat (winter)",winter wheat [1]; [18],0
same,"Plant response rating, Wheat (winter)",winter wheat [1]; [19],0
same,Wheat (winter) plant response rating (0 to 100 scale),winter wheat [1]; Rate 250 g/ha,0
same,"Plant response rating, Barley (winter)",winter barley; [18],10
same,"Plant response rating, Barley (winter)",winter barley; [19],10
same,Barley (winter) plant response rating (0 to 100 scale),winter barley; Rate 250 g/ha,10
same,Ducksalad plant response rating,duck salad; [20],0
same,Ducksalad plant response rating,duck salad; [21],0
same,"Plant response rating, Ducksalad",duck salad; [22],0
same,Ducksalad plant response rating,duck salad; [23],0
same,Morningglory plant response rating,morningglory; [24],3
same,Morningglory plant response rating,morningglory; [11],0
same,Morningglory plant response rating (0 to 10 scale),morningglory; [25],0
same,Morningglory plant response rating,morningglory; [26],0
same,Morningglory plant response rating,morningglory; [27],1
same,Morningglory plant response rating,morningglory; [14],3
same,"Plant response rating, Morningglory",morningglory; [28],3
same,Morningglory plant response rating,morningglory; [29],5
same,"Plant response rating, Green foxtail",green foxtail; [18],20
same,"Plant response rating, Green foxtail",green foxtail; [19],30
same,Green foxtail plant response rating (0 to 100 scale),green foxtail; Rate 250 g/ha,55
same,"Plant response rating, Wheat (winter)","winter wheat [2]; Rate 62 g/ha, 0 to 100 scale",0
same,"Plant response rating, Wheat (winter)","winter wheat [2]; Rate 125 g/ha, 0 to 100 scale",10
same,Wheat (winter) plant response rating,"winter wheat [2]; Rate 250 g/ha, 0 to 100 scale where 0 is no effect and 100 is complete control",80
same,Giant foxtail plant response rating,giant foxtail; [24],8
same,Giant foxtail plant response rating,giant foxtail; [11],7
same,Giant foxtail plant response rating (0 to 10 scale),giant foxtail; [25],9
same,Giant foxtail plant response rating,giant foxtail; [26],9
same,Giant foxtail plant response rating,giant foxtail; [27],10
same,Giant foxtail plant response rating,giant foxtail; [14],5
same,"Plant response rating, Giant foxtail",giant foxtail; [28],8
same,Giant foxtail plant response rating,giant foxtail; [29],9
CCC(CC)n1c(=O)on(C(=O)N(c2ccc(F)cc2F)C(C)C)c1=O [Compound 353],"Plant response rating, Wild oat",wild oat; [19],30
same,"Plant response rating, Wild oat","wild oat; Rate 250 g/ha, 0 to 100 scale",55
same,"Plant response rating, Wild oat",wild oat; [3],85
same,"Plant response rating, I. Ryegrass",Italian ryegrass; [19],40
same,"Plant response rating, I. Ryegrass","Italian ryegrass; Rate 250 g/ha, 0 to 100 scale",90
same,"Plant response rating, I. Ryegrass",Italian ryegrass; [3],90
same,"Plant response rating, Rice (0 to 10 scale, 0 is no effect, 10 is complete control)",rice; [5],0
same,Rice plant response rating,rice; [6],0
same,Rice plant response rating,rice; [7],0
same,Rice plant response rating,rice; [8],4
same,"Plant response rating, Blackgrass",blackgrass; [19],10
same,"Plant response rating, Blackgrass","blackgrass; Rate 250 g/ha, 0 to 100 scale",50
same,"Plant response rating, Blackgrass",blackgrass; [3],55
same,"Plant response rating, Wheat (winter)",winter wheat [1]; [19],20
same,"Plant response rating, Wheat (winter)","winter wheat [1]; Rate 250 g/ha, 0 to 100 scale",40
same,"Plant response rating, Wheat (winter)",winter wheat [1]; [3],60
same,"Plant response rating, Barley (winter)",winter barley; [19],10
same,"Plant response rating, Barley (winter)",winter barley; [9],20
same,"Plant response rating, Barley (winter)",winter barley; [3],30
same,"Plant response rating, Ducksalad (0 to 10 scale, 0 is no effect, 10 is complete control)",duck salad; [5],0
same,Ducksalad plant response rating,duck salad; [6],0
same,Ducksalad plant response rating,duck salad; [7],0
same,Ducksalad plant response rating,duck salad; [8],0
same,"Plant response rating, Morningglory",morningglory; [10],3
same,"Plant response rating, Morningglory",morningglory; [11],0
same,Morningglory plant response rating (0 to 10 scale),"morningglory; Preemergence, Rate 125 g/ha",0
same,Morningglory plant response rating,morningglory; [12],1
same,Morningglory plant response rating,morningglory; [13],1
same,Morningglory plant response rating,morningglory; [14],3
same,"Plant response rating, Morningglory",morningglory; [15],10
same,"Plant response rating, Green foxtail",green foxtail; [19],70
same,"Plant response rating, Green foxtail","green foxtail; Rate 250 g/ha, 0 to 100 scale",100
same,"Plant response rating, Green foxtail",green foxtail; [3],100
same,"Plant response rating, Wheat (winter)","winter wheat [2]; Rate 125 g/ha, 0 to 100 scale, 0 is no effect, 100 is complete control",20
same,"Plant response rating, Wheat (winter)",winter wheat [2]; [16],30
same,"Plant response rating, Wheat (winter)",winter wheat [2]; [17],40
same,"Plant response rating, Giant foxtail",giant foxtail; [10],3
same,"Plant response rating, Giant foxtail",giant foxtail; [11],9
same,Giant foxtail plant response rating (0 to 10 scale),"giant foxtail; Preemergence, Rate 125 g/ha",10
same,Giant foxtail plant response rating,giant foxtail; [12],10
same,Giant foxtail plant response rating,giant foxtail; [13],10
same,Giant foxtail plant response rating,giant foxtail; [14],0
same,"Plant response rating, Giant foxtail",giant foxtail; [15],8
